Reference: patent US6432671B1 (priority 1996, dated 2002)

System: tryparedoxin I
Format: biochemical, Crithidia fasciculata

CCN1C(=O)C=CC1=O [NEM, N-ethylmaleimide]
residual activity [%]: 24 ± 5%
